Results from ChEMBL document CHEMBL2413004, “Synthesis and in vitro cytostatic activity of 1,2- and 1,3-diacylglycerophosphates of clofarabine” (Bioorg Med Chem, 2013).

What was measured:
Type in all cases: functional, cell-based
[1] = test system: HeLa; test: Cytostatic activity against human HeLa cells after 48 hrs by MTT assay
[2] = test system: HL-60; test: Cytostatic activity against human HL60 cells after 48 hrs by MTT assay; settings: HL-60, 48 h
[3] = test system: A549; test: Cytostatic activity against human A549 cells after 48 hrs by MTT assay; settings: A549, 48 h
[4] = test system: MCF7; test: Cytostatic activity against human MCF7 cells after 48 hrs by MTT assay; settings: MCF7, 48 h

Row | Structure (SMILES) | IC50 [1] | IC50 [2] | IC50 [3] | IC50 [4]
1 | CCCCCCCCCCCCCC(=O)OCC(COC(=O)CCCCCCCCCCCCC)OP(=O)(O)OC[C@H]1O[C@@H](n2cnc3c(N)nc(Cl)nc32)[C@@H](F)[C@@H]1O | > 100 µM | > 100 µM | > 100 µM | 40 µM
2 | Nc1nc(Cl)nc2c1ncn2[C@@H]1O[C@H](CO)[C@@H](O)[C@@H]1F [CLOFARABINE] | 50 µM | 0.1 µM | 8 µM | 50 µM
3 | CCCCCCCCCCCCCCCC(=O)OC[C@@H](COP(=O)(O)OC[C@H]1O[C@@H](n2cnc3c(N)nc(Cl)nc32)[C@@H](F)[C@@H]1O)OC(=O)CCCCCCCCCCCCCCC | > 100 µM | 10 µM | > 100 µM | > 100 µM
4 | CCCCCCCCCCCCCC(=O)OC[C@@H](COP(=O)(O)OC[C@H]1O[C@@H](n2cnc3c(N)nc(Cl)nc32)[C@@H](F)[C@@H]1O)OC(=O)CCCCCCCCCCCCC | 50 µM | 0.8 µM | > 100 µM | 40 µM
5 | CCCCCCCCCCCCCCCC(=O)OCC(COC(=O)CCCCCCCCCCCCCCC)OP(=O)(O)OC[C@H]1O[C@@H](n2cnc3c(N)nc(Cl)nc32)[C@@H](F)[C@@H]1O | 100 µM | 55 µM | 90 µM | 30 µM
